Results published in PubChem BioAssay AID330 (DTP/NCI, 2004).
Where “and” joins values, the source holds several entries; their conditions need not be identical. Equal entries are not always repeated. Toxic doses and inconclusive results are not listed.

Tested on: P388 leukemia ip, CD2F1 mice, survival T/C
Experiment: NCI In Vivo Anticancer Drug Screen. Data for tumor model P388 Leukemia (intraperitoneal) in CD2F1 (CDF1) mice
Details: endpoint: median survival time, higher = longer survival
Summary of the method: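 Mice carrying the transplanted tumor received test compound or vehicle. Survival was recorded in each group, and the value is the treated-group measurement divided by that of the vehicle-treated control group.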

[1] = dose: 6.25 mg/kg/injection, schedule: Q01DX009 (ip), vehicle: Klucel (hydroxypropylcellulose) (HPC)
[2] = dose: 12.5 mg/kg/injection, schedule: Q01DX009 (ip), vehicle: Klucel (hydroxypropylcellulose) (HPC)

## C=C1C(=O)O[C@@H]2[C@H](O)[C@@H](C)[C@@H]3C=CC(=O)[C@@]3(C)[C@H](OC(=O)C=C(C)C)[C@H]12
dose: 1.56 mg/kg/injection, schedule: Q01DX009 (ip), vehicle: saline with Tween-80
  T/C: 121 % of control
dose: 3.12 mg/kg/injection, schedule: Q01DX009 (ip), vehicle: saline with Tween-80
  T/C: 120 % of control
dose: 3.12 mg/kg/injection, schedule: Q01DX009 (ip), vehicle: saline
  T/C: 151 % of control
dose: 6.25 mg/kg/injection, schedule: Q01DX009 (ip), vehicle: saline with Tween-80
  T/C: 117 % of control and 121 % of control
dose: 12.5 mg/kg/injection, schedule: Q01DX009 (ip), vehicle: saline with Tween-80
  T/C: 107 % of control and 121 % of control
dose: 12.5 mg/kg/injection, schedule: Q01DX009 (ip), vehicle: saline
  T/C: 150 % of control

## NC(=O)Cc1noc2ccccc12
dose: 400.0 mg/kg/injection, schedule: Q01DX009 (ip), vehicle: saline with Tween-80
  T/C: 106 % of control and 88 % of control

## O=C1c2ccccc2CCC1Br (stereo not given)
dose: 1.56 mg/kg/injection, schedule: Q01DX009 (ip), vehicle: DMSO
  T/C: 113 % of control
dose: 6.25 mg/kg/injection, schedule: Q01DX009 (ip), vehicle: DMSO
  T/C: 99 % of control and 103 % of control
dose: 12.5 mg/kg/injection, schedule: Q01DX009 (ip), vehicle: DMSO
  T/C: 102 % of control

## O=c1[nH]c(=O)c2ccccc2o1
[1]
  T/C: 104 % of control
[2]
  T/C: 111 % of control
dose: 25.0 mg/kg/injection, schedule: Q01DX009 (ip), vehicle: Klucel (hydroxypropylcellulose) (HPC)
  T/C: 110 % of control
dose: 50.0 mg/kg/injection, schedule: Q01DX009 (ip), vehicle: Klucel (hydroxypropylcellulose) (HPC)
  T/C: 106 % of control

## O=C(CCCl)Nc1ccc(C(=O)CCc2cccc(NC(=O)CCCl)c2)cc1
dose: 60.0 mg/kg/injection, schedule: Q01DX005 (ip), vehicle: saline with Tween-80
  T/C: 100 % of control
dose: 120.0 mg/kg/injection, schedule: Q01DX005 (ip), vehicle: saline with Tween-80
  T/C: 97 % of control
dose: 240.0 mg/kg/injection, schedule: Q01DX005 (ip), vehicle: saline with Tween-80
  T/C: 89 % of control

## O=C1CC(c2ccccc2)NCCCCN2C(=O)C=Cc3ccccc3C2CCN1 (stereo not given)
[1]
  T/C: 100 % of control
[2]
  T/C: 94 % of control

## CC1(C)OC(=O)C(=Cc2ccc[nH]2)C(=O)O1
dose: 50.0 mg/kg/injection, schedule: Q01DX005 (ip), vehicle: Klucel (hydroxypropylcellulose) (HPC)
  T/C: 98 % of control
dose: 100.0 mg/kg/injection, schedule: Q01DX005 (ip), vehicle: Klucel (hydroxypropylcellulose) (HPC)
  T/C: 105 % of control
dose: 200.0 mg/kg/injection, schedule: Q01DX005 (ip), vehicle: Klucel (hydroxypropylcellulose) (HPC)
  T/C: 107 % of control

## O=C(CSc1ccccc1)c1ccccc1
dose: 10.0 mg/kg/injection, schedule: Q01DX005 (ip), vehicle: Klucel (hydroxypropylcellulose) (HPC)
  T/C: 101 % of control
dose: 20.0 mg/kg/injection, schedule: Q01DX005 (ip), vehicle: Klucel (hydroxypropylcellulose) (HPC)
  T/C: 102 % of control
dose: 40.0 mg/kg/injection, schedule: Q01DX005 (ip), vehicle: Klucel (hydroxypropylcellulose) (HPC)
  T/C: 101 % of control

## COc1cc(Oc2c(C)c(Cl)c(OC)c(Cl)c2OC)c2c(c1Cl)COC2=O
dose: 7.5 mg/kg/injection, schedule: Q01DX005 (ip), vehicle: Klucel (hydroxypropylcellulose) (HPC)
  T/C: 97 % of control
dose: 15.0 mg/kg/injection, schedule: Q01DX005 (ip), vehicle: Klucel (hydroxypropylcellulose) (HPC)
  T/C: 97 % of control
dose: 30.0 mg/kg/injection, schedule: Q01DX005 (ip), vehicle: Klucel (hydroxypropylcellulose) (HPC)
  T/C: 100 % of control

## c1ccc(C2CO2)cc1 (stereo not given)
dose: 100.0 mg/kg/injection, schedule: Q01DX001 (ip), vehicle: Klucel (hydroxypropylcellulose) (HPC)
  T/C: 106 % of control
dose: 200.0 mg/kg/injection, schedule: Q01DX001 (ip), vehicle: Klucel (hydroxypropylcellulose) (HPC)
  T/C: 100 % of control
dose: 400.0 mg/kg/injection, schedule: Q01DX001 (ip), vehicle: Klucel (hydroxypropylcellulose) (HPC)
  T/C: 102 % of control

## O=C1/C(=C(\Cl)c2ccccc2)Cc2ccccc21
dose: 75.0 mg/kg/injection, schedule: Q01DX001 (ip), vehicle: saline sonified
  T/C: 100 % of control
dose: 150.0 mg/kg/injection, schedule: Q01DX001 (ip), vehicle: saline sonified
  T/C: 95 % of control
dose: 300.0 mg/kg/injection, schedule: Q01DX001 (ip), vehicle: saline sonified
  T/C: 118 % of control

## CC1CCCC(C)N1C1=NCCO1 (stereo not given)
dose: 5.0 mg/kg/injection, schedule: Q04DX003 (ip), vehicle: saline
  T/C: 95 % of control
dose: 10.0 mg/kg/injection, schedule: Q04DX003 (ip), vehicle: saline
  T/C: 100 % of control
dose: 20.0 mg/kg/injection, schedule: Q04DX003 (ip), vehicle: saline
  T/C: 95 % of control

## CC(N)CN1C=NC(C)C1 (stereo not given)
dose: 50.0 mg/kg/injection, schedule: Q01DX009 (ip), vehicle: saline
  T/C: 97 % of control
dose: 100.0 mg/kg/injection, schedule: Q01DX009 (ip), vehicle: saline
  T/C: 103 % of control
dose: 200.0 mg/kg/injection, schedule: Q01DX009 (ip), vehicle: saline
  T/C: 94 % of control
